Reference: the kinase profiling compilation of Christmann-Franck et al. (2016)

Experiments:
Assay in all cases: radiometric filter-binding kinase assay, Kinase HotSpot
Settings in all cases: compound 0.5 µM; ATP 10 µM
KDR (human) = KDR (human) (UniProt P35968)
DMPK (human) = DMPK (human) (UniProt Q09013)
PNCK (human) = PNCK (human) (UniProt Q6P2M8)
PRKCG (human) = PRKCG (human) (UniProt P05129)
CSNK1G2 (human) = CSNK1G2 (human) (UniProt P78368)
SGK2 (human) = SGK2 (human) (UniProt Q9HBY8)
JAK2 JH1 JH2 (human) = JAK2 JH1 JH2 (human) (UniProt O60674)
Chain of JAK2 JH1 JH2 (human) (O60674 whole entry, looked up): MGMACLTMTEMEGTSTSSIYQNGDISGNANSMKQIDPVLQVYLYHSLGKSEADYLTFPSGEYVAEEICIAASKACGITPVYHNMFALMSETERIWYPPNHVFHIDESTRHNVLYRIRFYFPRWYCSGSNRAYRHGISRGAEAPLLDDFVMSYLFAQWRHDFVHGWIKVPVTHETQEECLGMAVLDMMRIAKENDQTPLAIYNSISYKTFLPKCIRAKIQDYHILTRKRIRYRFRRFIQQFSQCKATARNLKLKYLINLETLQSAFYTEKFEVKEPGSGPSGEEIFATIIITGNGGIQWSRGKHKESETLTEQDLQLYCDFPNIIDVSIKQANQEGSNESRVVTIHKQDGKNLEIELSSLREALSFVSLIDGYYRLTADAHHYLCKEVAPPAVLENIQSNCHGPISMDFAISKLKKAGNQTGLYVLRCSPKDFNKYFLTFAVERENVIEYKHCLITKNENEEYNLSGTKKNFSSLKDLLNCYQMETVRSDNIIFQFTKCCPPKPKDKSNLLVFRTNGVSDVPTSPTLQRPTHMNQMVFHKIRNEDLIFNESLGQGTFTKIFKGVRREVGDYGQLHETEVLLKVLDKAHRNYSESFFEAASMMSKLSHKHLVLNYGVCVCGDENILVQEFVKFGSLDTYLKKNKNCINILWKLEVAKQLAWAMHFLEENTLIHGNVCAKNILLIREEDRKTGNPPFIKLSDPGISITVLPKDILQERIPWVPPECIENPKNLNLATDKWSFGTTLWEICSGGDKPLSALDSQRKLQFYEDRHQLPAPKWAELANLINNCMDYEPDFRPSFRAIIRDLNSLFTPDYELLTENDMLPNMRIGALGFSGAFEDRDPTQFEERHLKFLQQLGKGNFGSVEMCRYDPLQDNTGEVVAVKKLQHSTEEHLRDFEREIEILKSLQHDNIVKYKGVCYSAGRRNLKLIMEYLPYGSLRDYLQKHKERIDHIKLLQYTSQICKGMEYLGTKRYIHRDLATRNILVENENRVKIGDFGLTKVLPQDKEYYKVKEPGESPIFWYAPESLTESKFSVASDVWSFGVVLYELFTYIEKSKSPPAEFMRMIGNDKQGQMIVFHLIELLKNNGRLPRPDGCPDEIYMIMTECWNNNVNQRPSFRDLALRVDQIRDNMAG

PIM3 (human) = PIM3 (human) (UniProt Q86V86)
PLK2 (human) = PLK2 (human) (UniProt Q9NYY3)
PKN2 (human) = PKN2 (human) (UniProt Q16513)
PBK (human) = PBK (human) (UniProt Q96KB5)
Chain of PBK (human) (Q96KB5 whole entry, looked up): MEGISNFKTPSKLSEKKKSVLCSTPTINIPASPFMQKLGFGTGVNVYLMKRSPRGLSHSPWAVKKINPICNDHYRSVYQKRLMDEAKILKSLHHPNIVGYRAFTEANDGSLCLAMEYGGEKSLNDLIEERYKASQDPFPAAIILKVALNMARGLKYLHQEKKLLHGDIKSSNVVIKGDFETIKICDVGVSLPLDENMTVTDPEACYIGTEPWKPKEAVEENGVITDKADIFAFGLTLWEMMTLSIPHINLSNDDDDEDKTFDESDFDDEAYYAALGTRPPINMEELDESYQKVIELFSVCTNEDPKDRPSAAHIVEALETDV

[1] = molecular target: TYK2 JH1 catalytic (human) (UniProt P29597)
CAMK2G (human) = CAMK2G (human) (UniProt Q13555)
MAPKAPK3 (human) = MAPKAPK3 (human) (UniProt Q16644)
MAP3K10 (human) = MAP3K10 (human) (UniProt Q02779)
STK3 (human) = STK3 (human) (UniProt Q13188)
AKT1 (human) = AKT1 (human) (UniProt P31749)
Chain of AKT1 (human) (P31749 whole entry, looked up): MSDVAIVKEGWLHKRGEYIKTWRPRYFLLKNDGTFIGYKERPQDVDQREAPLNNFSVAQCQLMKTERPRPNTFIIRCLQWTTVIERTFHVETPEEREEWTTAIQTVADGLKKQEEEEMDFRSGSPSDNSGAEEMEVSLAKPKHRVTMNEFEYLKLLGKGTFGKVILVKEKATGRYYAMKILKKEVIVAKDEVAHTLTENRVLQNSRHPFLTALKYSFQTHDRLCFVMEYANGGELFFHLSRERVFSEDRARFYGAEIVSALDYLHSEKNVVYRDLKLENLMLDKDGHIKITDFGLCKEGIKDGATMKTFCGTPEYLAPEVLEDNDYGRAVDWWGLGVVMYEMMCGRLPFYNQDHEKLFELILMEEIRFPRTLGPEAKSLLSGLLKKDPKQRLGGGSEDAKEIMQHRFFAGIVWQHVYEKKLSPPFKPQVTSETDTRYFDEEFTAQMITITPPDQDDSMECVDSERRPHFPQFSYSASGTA

PIM1 (human) = PIM1 (human) (UniProt P11309)
MARK4 (human) = MARK4 (human) (UniProt Q96L34)
WNK2 (human) = WNK2 (human) (UniProt Q9Y3S1)
GSK3A (human) = GSK3A (human) (UniProt P49840)
KIT (human) = KIT (human) (UniProt P10721)
SRPK3 (human) = SRPK3 (human) (UniProt Q9UPE1)
DAPK1 (human) = DAPK1 (human) (UniProt P53355)
WEE1 (human) = WEE1 (human) (UniProt P30291)
Chain of WEE1 (human) (P30291 whole entry, looked up): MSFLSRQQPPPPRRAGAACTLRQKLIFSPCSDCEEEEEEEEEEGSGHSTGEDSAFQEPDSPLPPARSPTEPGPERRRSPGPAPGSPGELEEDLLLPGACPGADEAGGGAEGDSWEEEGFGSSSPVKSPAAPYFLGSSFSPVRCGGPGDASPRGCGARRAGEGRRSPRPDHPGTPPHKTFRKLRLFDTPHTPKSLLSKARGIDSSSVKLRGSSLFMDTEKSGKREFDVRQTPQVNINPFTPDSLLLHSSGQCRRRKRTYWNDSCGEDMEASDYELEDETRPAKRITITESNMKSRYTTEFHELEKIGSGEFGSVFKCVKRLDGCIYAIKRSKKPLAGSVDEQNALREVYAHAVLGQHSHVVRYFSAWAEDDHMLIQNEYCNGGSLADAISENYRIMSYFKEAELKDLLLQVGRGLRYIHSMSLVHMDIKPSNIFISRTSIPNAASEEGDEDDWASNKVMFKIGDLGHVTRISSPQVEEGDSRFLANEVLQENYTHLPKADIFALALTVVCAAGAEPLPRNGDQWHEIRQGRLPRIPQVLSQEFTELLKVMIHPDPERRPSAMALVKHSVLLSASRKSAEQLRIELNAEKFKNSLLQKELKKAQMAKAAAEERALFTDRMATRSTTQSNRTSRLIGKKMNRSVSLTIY

[2] = test system: SGK1 (human), O00141 [S422D]
CAMK2A (human) = CAMK2A (human) (UniProt Q9UQM7)
PIM2 (human) = PIM2 (human) (UniProt Q9P1W9)
MARK2 (human) = MARK2 (human) (UniProt Q7KZI7)
Chain of MARK2 (human) (Q7KZI7 whole entry, looked up): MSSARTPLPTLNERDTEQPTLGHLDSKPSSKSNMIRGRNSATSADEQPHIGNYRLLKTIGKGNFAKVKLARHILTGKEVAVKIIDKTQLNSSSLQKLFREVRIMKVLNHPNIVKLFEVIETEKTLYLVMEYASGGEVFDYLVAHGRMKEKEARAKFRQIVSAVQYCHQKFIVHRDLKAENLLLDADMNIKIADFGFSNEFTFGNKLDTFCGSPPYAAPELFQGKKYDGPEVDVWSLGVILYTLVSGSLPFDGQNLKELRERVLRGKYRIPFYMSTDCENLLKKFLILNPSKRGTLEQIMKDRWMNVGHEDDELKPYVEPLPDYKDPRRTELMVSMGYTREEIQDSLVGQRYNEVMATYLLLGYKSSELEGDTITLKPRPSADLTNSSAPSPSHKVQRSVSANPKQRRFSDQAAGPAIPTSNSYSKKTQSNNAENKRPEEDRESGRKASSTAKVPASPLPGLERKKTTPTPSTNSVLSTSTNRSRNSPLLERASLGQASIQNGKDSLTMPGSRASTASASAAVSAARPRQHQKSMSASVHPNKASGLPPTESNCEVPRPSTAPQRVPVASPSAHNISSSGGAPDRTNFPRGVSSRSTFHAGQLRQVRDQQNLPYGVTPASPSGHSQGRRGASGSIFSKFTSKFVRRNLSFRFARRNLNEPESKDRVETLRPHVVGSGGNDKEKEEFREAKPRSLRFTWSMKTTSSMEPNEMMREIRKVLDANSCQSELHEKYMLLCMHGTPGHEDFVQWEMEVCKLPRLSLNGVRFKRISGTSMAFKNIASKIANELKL

PDGFRA (human) = PDGFRA (human) (UniProt P16234)
DCLK2 (human) = DCLK2 (human) (UniProt Q8N568)
OXSR1 (human) = OXSR1 (human) (UniProt O95747)
CDK3 CCNE1 (human) = CDK3 CCNE1 (human) (UniProt Q00526+P24864)
Chain of CDK3 CCNE1 (human) (P24864 whole entry, looked up): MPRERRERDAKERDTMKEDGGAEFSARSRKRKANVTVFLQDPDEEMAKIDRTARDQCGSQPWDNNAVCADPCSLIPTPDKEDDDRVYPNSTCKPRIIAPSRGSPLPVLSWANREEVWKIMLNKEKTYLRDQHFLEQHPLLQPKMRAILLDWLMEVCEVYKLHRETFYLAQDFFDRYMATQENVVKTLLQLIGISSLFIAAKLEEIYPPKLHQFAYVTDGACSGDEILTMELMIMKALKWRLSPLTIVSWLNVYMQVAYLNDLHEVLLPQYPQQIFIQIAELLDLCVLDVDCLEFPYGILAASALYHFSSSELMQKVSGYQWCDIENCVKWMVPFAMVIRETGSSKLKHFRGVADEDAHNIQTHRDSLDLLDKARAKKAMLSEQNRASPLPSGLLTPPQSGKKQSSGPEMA
Chain of CDK3 CCNE1 (human) (Q00526 whole entry, looked up): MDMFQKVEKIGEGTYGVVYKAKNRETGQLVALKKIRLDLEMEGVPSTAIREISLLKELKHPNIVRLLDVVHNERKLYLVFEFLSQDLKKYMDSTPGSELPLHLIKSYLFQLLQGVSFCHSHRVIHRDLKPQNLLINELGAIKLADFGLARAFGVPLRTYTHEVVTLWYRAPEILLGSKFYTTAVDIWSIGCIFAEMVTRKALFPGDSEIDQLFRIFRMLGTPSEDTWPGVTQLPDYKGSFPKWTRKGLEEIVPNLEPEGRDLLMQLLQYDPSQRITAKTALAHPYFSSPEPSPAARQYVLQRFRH

HIPK3 (human) = HIPK3 (human) (UniProt Q9H422)
BLK (human) = BLK (human) (UniProt P51451)
LTK (human) = LTK (human) (UniProt P29376)
FLT3 (human) = FLT3 (human) (UniProt P36888)
PTK2 (human) = PTK2 (human) (UniProt Q05397)
RIPK2 (human) = RIPK2 (human) (UniProt O43353)
MAPK12 (human) = MAPK12 (human) (UniProt P53778)
CDC42BPB (human) = CDC42BPB (human) (UniProt Q9Y5S2)
FES (human) = FES (human) (UniProt P07332)
Chain of FES (human) (P07332 whole entry, looked up): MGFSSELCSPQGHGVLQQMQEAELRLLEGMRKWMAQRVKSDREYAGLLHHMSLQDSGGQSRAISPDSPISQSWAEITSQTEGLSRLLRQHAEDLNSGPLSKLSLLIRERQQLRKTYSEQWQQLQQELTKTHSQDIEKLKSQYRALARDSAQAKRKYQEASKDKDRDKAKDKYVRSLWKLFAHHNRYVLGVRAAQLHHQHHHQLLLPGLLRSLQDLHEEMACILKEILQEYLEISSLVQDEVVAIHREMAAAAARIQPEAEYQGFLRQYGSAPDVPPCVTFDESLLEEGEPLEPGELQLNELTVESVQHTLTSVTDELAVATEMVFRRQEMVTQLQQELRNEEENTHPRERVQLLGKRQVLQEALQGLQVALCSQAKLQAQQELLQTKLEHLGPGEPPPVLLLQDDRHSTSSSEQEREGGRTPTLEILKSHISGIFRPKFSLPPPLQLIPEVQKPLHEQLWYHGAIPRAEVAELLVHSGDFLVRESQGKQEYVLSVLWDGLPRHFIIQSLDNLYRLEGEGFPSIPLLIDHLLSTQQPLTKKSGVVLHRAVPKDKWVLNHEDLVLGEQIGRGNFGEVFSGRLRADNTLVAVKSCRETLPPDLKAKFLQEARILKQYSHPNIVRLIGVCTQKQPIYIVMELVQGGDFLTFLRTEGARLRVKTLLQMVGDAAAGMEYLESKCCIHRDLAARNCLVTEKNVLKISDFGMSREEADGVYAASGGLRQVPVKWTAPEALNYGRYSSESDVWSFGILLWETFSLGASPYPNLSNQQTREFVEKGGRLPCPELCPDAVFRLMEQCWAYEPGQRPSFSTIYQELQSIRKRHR

Cc1cc(Nc2nc(-c3ccccc3)nc3ccccc23)n[nH]1
residual activity (KDR (human)): 36.5% | residual activity (DMPK (human)): 100% | residual activity (PNCK (human)): 102% | residual activity (PRKCG (human)): 98.6% | residual activity (CSNK1G2 (human)): 69.3% | residual activity (SGK2 (human)): 99.7% | residual activity (JAK2 JH1 JH2 (human)): 52.6% | residual activity (PIM3 (human)): 130% | residual activity (PLK2 (human)): 110% | residual activity (PKN2 (human)): 87.2% | residual activity (PBK (human)): 95.4% | residual activity [1]: 34.3% | residual activity (CAMK2G (human)): 95.9% | residual activity (MAPKAPK3 (human)): 81% | residual activity (MAP3K10 (human)): 75.4% | residual activity (STK3 (human)): 58.5% | residual activity (AKT1 (human)): 107% | residual activity (PIM1 (human)): 83.3% | residual activity (MARK4 (human)): 83.5% | residual activity (WNK2 (human)): 82.6% | residual activity (GSK3A (human)): 11.3% | residual activity (KIT (human)): 40.8% | residual activity (SRPK3 (human)): 61.5% | residual activity (DAPK1 (human)): 39.1% | residual activity (WEE1 (human)): 88% | residual activity [2]: 95.5% | residual activity (CAMK2A (human)): 108% | residual activity (PIM2 (human)): 92.7% | residual activity (MARK2 (human)): 89.6% | residual activity (PDGFRA (human)): 81.6% | residual activity (DCLK2 (human)): 87.4% | residual activity (OXSR1 (human)): 98.1% | residual activity (CDK3 CCNE1 (human)): 85% | residual activity (HIPK3 (human)): 88.5% | residual activity (BLK (human)): 56.2% | residual activity (LTK (human)): 63.6% | residual activity (FLT3 (human)): 10.5% | residual activity (PTK2 (human)): 59.9% | residual activity (RIPK2 (human)): 70.4% | residual activity (MAPK12 (human)): 86.8% | residual activity (CDC42BPB (human)): 87.1% | residual activity (FES (human)): 94.7%

O=C(O)c1ccc2c3c1cccc3c(=O)n1c3ccccc3nc21
residual activity (KDR (human)): 101% | residual activity (DMPK (human)): 98.9% | residual activity (PNCK (human)): 101% | residual activity (PRKCG (human)): 99.1% | residual activity (CSNK1G2 (human)): 93.5% | residual activity (SGK2 (human)): 103% | residual activity (JAK2 JH1 JH2 (human)): 86.7% | residual activity (PIM3 (human)): 4.96% | residual activity (PLK2 (human)): 97% | residual activity (PKN2 (human)): 97.9% | residual activity (PBK (human)): 97.5% | residual activity [1]: 22.8% | residual activity (CAMK2G (human)): 96.5% | residual activity (MAPKAPK3 (human)): 103% | residual activity (MAP3K10 (human)): 99.3% | residual activity (STK3 (human)): 97.1% | residual activity (AKT1 (human)): 101% | residual activity (PIM1 (human)): 59.5% | residual activity (MARK4 (human)): 88.4% | residual activity (WNK2 (human)): 106% | residual activity (GSK3A (human)): 87.3% | residual activity (KIT (human)): 93.5% | residual activity (SRPK3 (human)): 82.8% | residual activity (DAPK1 (human)): 40.9% | residual activity (WEE1 (human)): 84.6% | residual activity [2]: 102% | residual activity (CAMK2A (human)): 85.2% | residual activity (PIM2 (human)): 41.7% | residual activity (MARK2 (human)): 87.7% | residual activity (PDGFRA (human)): 94.4% | residual activity (DCLK2 (human)): 96.7% | residual activity (OXSR1 (human)): 104% | residual activity (CDK3 CCNE1 (human)): 97.9% | residual activity (HIPK3 (human)): 103% | residual activity (BLK (human)): 100% | residual activity (LTK (human)): 72.7% | residual activity (FLT3 (human)): 68.9% | residual activity (PTK2 (human)): 97.5% | residual activity (RIPK2 (human)): 78.4% | residual activity (MAPK12 (human)): 103% | residual activity (CDC42BPB (human)): 109% | residual activity (FES (human)): 98.2%

Nc1ncnc2c1cnn2-c1ccccc1
residual activity (KDR (human)): 98.8% | residual activity (DMPK (human)): 106% | residual activity (PNCK (human)): 97.5% | residual activity (PRKCG (human)): 103% | residual activity (CSNK1G2 (human)): 95.1% | residual activity (SGK2 (human)): 98.4% | residual activity (JAK2 JH1 JH2 (human)): 91.6% | residual activity (PIM3 (human)): 91.4% | residual activity (PLK2 (human)): 99.2% | residual activity (PKN2 (human)): 125% | residual activity (PBK (human)): 92.4% | residual activity [1]: 86.7% | residual activity (CAMK2G (human)): 105% | residual activity (MAPKAPK3 (human)): 96.6% | residual activity (MAP3K10 (human)): 88.6% | residual activity (STK3 (human)): 92.3% | residual activity (AKT1 (human)): 103% | residual activity (PIM1 (human)): 99.4% | residual activity (MARK4 (human)): 89.7% | residual activity (WNK2 (human)): 114% | residual activity (GSK3A (human)): 90.3% | residual activity (KIT (human)): 89.5% | residual activity (SRPK3 (human)): 96.4% | residual activity (DAPK1 (human)): 98.5% | residual activity (WEE1 (human)): 90% | residual activity [2]: 90.9% | residual activity (CAMK2A (human)): 105% | residual activity (PIM2 (human)): 98.2% | residual activity (MARK2 (human)): 95.3% | residual activity (PDGFRA (human)): 103% | residual activity (DCLK2 (human)): 101% | residual activity (OXSR1 (human)): 92.6% | residual activity (CDK3 CCNE1 (human)): 96.2% | residual activity (HIPK3 (human)): 97.6% | residual activity (BLK (human)): 100% | residual activity (LTK (human)): 96.8% | residual activity (FLT3 (human)): 88.9% | residual activity (PTK2 (human)): 94.9% | residual activity (RIPK2 (human)): 93.1% | residual activity (MAPK12 (human)): 90.6% | residual activity (CDC42BPB (human)): 96.7% | residual activity (FES (human)): 99.7%

FC(F)(F)c1ccc(/C=C/c2nc(COc3ccc(CCCCn4ccnn4)cc3)co2)cc1
residual activity (KDR (human)): 106% | residual activity (DMPK (human)): 101% | residual activity (PNCK (human)): 96.6% | residual activity (PRKCG (human)): 95.2% | residual activity (CSNK1G2 (human)): 96.7% | residual activity (SGK2 (human)): 103% | residual activity (JAK2 JH1 JH2 (human)): 98.9% | residual activity (PIM3 (human)): 107% | residual activity (PLK2 (human)): 99.7% | residual activity (PKN2 (human)): 107% | residual activity (PBK (human)): 99.9% | residual activity [1]: 99.1% | residual activity (CAMK2G (human)): 99% | residual activity (MAPKAPK3 (human)): 98.9% | residual activity (MAP3K10 (human)): 98.9% | residual activity (STK3 (human)): 95.5% | residual activity (AKT1 (human)): 93.2% | residual activity (PIM1 (human)): 102% | residual activity (MARK4 (human)): 97.9% | residual activity (WNK2 (human)): 95.9% | residual activity (GSK3A (human)): 102% | residual activity (KIT (human)): 98.8% | residual activity (SRPK3 (human)): 104% | residual activity (DAPK1 (human)): 91.3% | residual activity (WEE1 (human)): 101% | residual activity [2]: 102% | residual activity (CAMK2A (human)): 101% | residual activity (PIM2 (human)): 116% | residual activity (MARK2 (human)): 105% | residual activity (PDGFRA (human)): 104% | residual activity (DCLK2 (human)): 102% | residual activity (OXSR1 (human)): 99.7% | residual activity (CDK3 CCNE1 (human)): 91% | residual activity (HIPK3 (human)): 100% | residual activity (BLK (human)): 102% | residual activity (LTK (human)): 104% | residual activity (FLT3 (human)): 87.8% | residual activity (PTK2 (human)): 101% | residual activity (RIPK2 (human)): 109% | residual activity (MAPK12 (human)): 98.3% | residual activity (CDC42BPB (human)): 100% | residual activity (FES (human)): 102%
